Assay [1] has as its system Diaporthe ampelina. The assay is described as follows: Antifungal activity against Diaporthe ampelina infected grape plant assessed as disease severity at internodes at 1.19 kg a.i./ha treated 3 to 6 hr prior to inoculation followed by 24 hr wetness period measured after 4 weeks in presence of regulaid (reference value: 2.9%). It is filed as functional.
The test system of assay [2] is Diaporthe ampelina. Put plainly: Antifungal activity against Diaporthe ampelina infected grape plant assessed as decrease in lesions on leaf at 2.6 kg/ha incubated for 24 hr prior to treatment with 20 hr wetness period followed by 4 hr drying period measured after 4 weeks relative to control in presence of stylet oil. The format is functional, organism-based.
In assay [3] the test system is Diaporthe ampelina. The assay is described as follows: Antifungal activity against Diaporthe ampelina infected grape plant assessed as disease severity at internodes at 1.19 kg a.i./ha incubated for 48 hr prior to treatment with 24 hr wetness period followed by 24 hr of drying period measured after 4 weeks in presence of stylet oil (reference value: 12.2%). The format is functional.

Assay [4] has as its system Diaporthe ampelina. Put plainly: Antifungal activity against Diaporthe ampelina infected grape plant assessed as decrease in lesions on leaf at 2.6 kg/ha incubated for 24 hr prior to treatment with 20 hr wetness period followed by 4 hr drying period measured after 4 weeks relative to control in presence of regulaid. The format is functional, organism-based.
Assay [5] concerns Diaporthe ampelina. The assay is described as follows: Antifungal activity against Diaporthe ampelina infected grape plant assessed as disease severity at internodes at 1.19 kg a.i./ha treated 3 to 6 hr prior to inoculation followed by 24 hr wetness period measured after 4 weeks in presence of stylet-oil(reference value: 2.9%). It is filed as functional.
Assay [6] concerns Diaporthe ampelina. Put plainly: Antifungal activity against Diaporthe ampelina infected grape plant assessed as disease severity at internodes at 1.19 kg a.i./ha incubated for 20 hr prior to treatment with 16 hr wetness period and 4 hr drying time measured after 4 weeks in presence of regulaid (reference value: 7.3%). The format is functional.
Assay [7] has as its system Diaporthe ampelina. Put plainly: Antifungal activity against Diaporthe ampelina infected grape plant assessed as decrease in lesions on leaf at 1.19 kg a.i./ha incubated for 20 hr prior to treatment with 16 hr wetness period and 4 hr drying time measured after 4 weeks relative to control in presence of regulaid. The format is functional, organism-based.
Assay [8] concerns Diaporthe ampelina. Put plainly: Antifungal activity against Diaporthe ampelina infected grape plant assessed as decrease in lesions on leaf at 1.19 kg a.i./ha incubated for 20 hr prior to treatment with 16 hr wetness period and 4 hr drying time measured after 4 weeks relative to control in presence of stylet oil. The format is functional, organism-based.
Assay [9] relates to Diaporthe ampelina. Put plainly: Antifungal activity against Diaporthe ampelina infected grape plant assessed as disease severity at internodes at 1.19 kg a.i./ha incubated for 24 hr prior to treatment with 20 hr wetness period followed by 4 hr drying period measured after 4 weeks in presence of stylet oil(reference value: 4.7%). The format is functional.
Assay [10] deals with Diaporthe ampelina. The assay is described as follows: Antifungal activity against Diaporthe ampelina infected grape plant assessed as disease severity at internodes at 1.19 kg a.i./ha incubated for 24 hr prior to treatment with 20 hr wetness period followed by 4 hr drying period measured after 4 weeks in presence of regulaid (reference value: 4.7%). The format is functional.

Assay [11] has as its system Diaporthe ampelina. Put plainly: Antifungal activity against Diaporthe ampelina infected grape plant assessed as decrease in lesions on leaf at 1.19 kg a.i./ha incubated for 48 hr prior to treatment with 24 hr wetness period followed by 24 hr of drying period measured after 4 weeks relative to control in presence of stylet oil. It is filed as functional, organism-based.

In assay [12] the test system is Diaporthe ampelina. Put plainly: Antifungal activity against Diaporthe ampelina infected grape plant assessed as disease severity at internodes at 1.19 kg a.i./ha treated 3 to 6 hr prior to inoculation followed by 24 hr wetness period measured after 4 weeks (reference value: 2.6%). It is filed as functional.
In assay [13] the test system is Diaporthe ampelina. Put plainly: Antifungal activity against Diaporthe ampelina infected grape plant assessed as decrease in lesions on leaf at 1.19 kg a.i./ha incubated for 48 hr prior to treatment with 24 hr wetness period followed by 24 hr of drying period measured after 4 weeks relative to control in presence of regulaid. The format is functional, organism-based.

Assay [14] relates to Diaporthe ampelina. The assay is described as follows: Antifungal activity against Diaporthe ampelina infected grape plant assessed as disease severity at internodes at 2.6 kg/ha incubated for 24 hr prior to treatment with 20 hr wetness period followed by 4 hr drying period measured after 4 weeks in presence of stylet oil(reference value: 3.2%). The format is functional.
Assay [15] has as its system Diaporthe ampelina. Put plainly: Antifungal activity against Diaporthe ampelina infected grape plant assessed as decrease in lesions on leaf at 1.19 kg a.i./ha incubated for 24 hr prior to treatment with 20 hr wetness period followed by 4 hr drying period measured after 4 weeks relative to control in presence of stylet oil. It is filed as functional, organism-based.

Assay [16] relates to Diaporthe ampelina. Put plainly: Antifungal activity against Diaporthe ampelina infected grape plant assessed as decrease in lesions on leaf at 1.19 kg a.i./ha treated 3 to 6 hr prior to inoculation followed by 24 hr wetness period measured after 4 weeks relative to control. The format is functional, organism-based.
Assay [17] has as its system Diaporthe ampelina. The assay is described as follows: Antifungal activity against Diaporthe ampelina infected grape plant assessed as disease severity at internodes at 2.6 kg/ha incubated for 24 hr prior to treatment with 20 hr wetness period followed by 4 hr drying period measured after 4 weeks in presence of regulaid (reference value: 3.2%). It is filed as functional.

For assay [18], the system named is Diaporthe ampelina. The assay is described as follows: Antifungal activity against Diaporthe ampelina infected grape plant assessed as re-isolation of mycelium from infected vines at 1.19 kg a.i./ha treated for weeks in presence of regulaid followed by inoculation on medium measured after 72 hr (reference value: 62.5%). The format is functional.
Assay [19] deals with Diaporthe ampelina. The assay is described as follows: Antifungal activity against Diaporthe ampelina infected grape plant assessed as decrease in lesions on leaf at 1.19 kg a.i./ha treated 3 to 6 hr prior to inoculation followed by 24 hr wetness period measured after 4 weeks relative to control in presence of stylet oil. The format is functional, organism-based.
The test system of assay [20] is Diaporthe ampelina. Put plainly: Antifungal activity against Diaporthe ampelina infected grape plant assessed as re-isolation of mycelium from infected vines at 1.19 kg a.i./ha treated for weeks in presence of stylet oil followed by inoculation on medium measured after 72 hr (reference value: 62.5%). The format is functional.
Assay [21] relates to Diaporthe ampelina. The assay is described as follows: Antifungal activity against Diaporthe ampelina infected grape plant assessed as disease severity at internodes at 1.19 kg a.i./ha incubated for 48 hr prior to treatment with 24 hr wetness period followed by 24 hr of drying period measured after 4 weeks in presence of regulaid (reference value: 12.2%). The format is functional.

Assay [22] deals with Diaporthe ampelina. The assay is described as follows: Antifungal activity against Diaporthe ampelina infected grape plant assessed as decrease in lesions on leaf at 1.19 kg a.i./ha treated 3 to 6 hr prior to inoculation followed by 24 hr wetness period measured after 4 weeks relative to control in presence of regulaid. It is filed as functional, organism-based.
The subject of assay [23] is Diaporthe ampelina. Put plainly: Antifungal activity against Diaporthe ampelina infected grape plant assessed as disease severity at internodes at 1.19 kg a.i./ha incubated for 20 hr prior to treatment with 16 hr wetness period and 4 hr drying time measured after 4 weeks in presence of stylet oil(reference value: 7.3%). It is filed as functional.
Assay [24] relates to Diaporthe ampelina. Put plainly: Antifungal activity against Diaporthe ampelina infected grape plant assessed as decrease in lesions on leaf at 1.19 kg a.i./ha incubated for 24 hr prior to treatment with 20 hr wetness period followed by 4 hr drying period measured after 4 weeks relative to control in presence of regulaid. It is filed as functional, organism-based.

The source made the active and inactive calls. No cut-off for these calls is given here.

As for `COC(=O)NC(=S)Nc1ccccc1NC(=S)NC(=O)OC` [THIOPHANATE METHYL], the Activity in the assay on Diaporthe ampelina [1] was 1%; with Diaporthe ampelina [3] it was 5.1%; in the assay with Diaporthe ampelina [5], 2%; with Diaporthe ampelina [6] it was 4%; in the assay on Diaporthe ampelina [9], 0.7%; with Diaporthe ampelina [10], 3.3%. In addition, the Activity worked out at 0.1% in the assay on Diaporthe ampelina [12]; 1.8% in the assay with Diaporthe ampelina [14]; 0.7% with Diaporthe ampelina [17]; 37.1% in the assay with Diaporthe ampelina [18]; 41.1% in the assay with Diaporthe ampelina [20]; 3.8% in the assay with Diaporthe ampelina [21]. Besides, the Activity in the assay with Diaporthe ampelina [23] came out at 7.5%. Besides, the result in the assay with Diaporthe ampelina [2], with Diaporthe ampelina [4], in the assay with Diaporthe ampelina [7], with Diaporthe ampelina [8], with Diaporthe ampelina [11] and in the assay on Diaporthe ampelina [13] was inactive. Further, the result in the assay on Diaporthe ampelina [15] and with Diaporthe ampelina [24] was inactive. Moreover, the result in the assay with Diaporthe ampelina [16], in the assay with Diaporthe ampelina [19] and in the assay with Diaporthe ampelina [22] was Active.

The values are drawn from ChEMBL document CHEMBL3046026, “Evaluation of the curative and protectant activity of fungicides and fungicide-adjuvant mixtures on Phomopsis cane and leaf spot of grape: A controlled environment study” (2007).
